{
  "source": "patent US5576335A",
  "about": "“Urea derivatives and their use as ACAT inhibitors” (Nisshin Flour Milling Co., Ltd., priority 1994, dated 1996)",
  "key": {"[1]": {"test_system": "ACAT", "assay": "ACAT inhibitory activity (labelled cholesteryl ester formation from [1-14C]oleoyl-CoA, liver microsome fractions)", "assay_type": "biochemical", "conditions": "compound at 10^-7 M; rabbit liver microsomes; percent inhibition of formation of labelled cholesteryl esters", "protocol": "1. ACAT inhibitory activity\nThe enzyme preparation, ACAT was prepared from liver microsome fractions of male rabbits according to the method of E. E. Largis et al. (Journal of Lipid Research, Vol. 30, pages 681-690, 1989). The activity was calculated by assaying the amount of the labelled cholesteryl esters formed from [1-^14 C]oleoyl-CoA and endogenous cholesterol according to the method of Kazuichi NATORI et al. (Japan J. Pharmacol., Vol. 42, pages 517-523, 1986).\nThe result is shown in Table 1, in which percent inhibition of the formation of the labelled cholesteryl esters with a compound added at 10^-7 M is indicated as index for the ACAT inhibitory activity."}, "[2]": {"test_system": "Human LDL", "assay": "Antioxidative activity (inhibition of MDA formation in cupric sulfate-induced peroxidation of LDL)", "assay_type": "biochemical", "conditions": "compound 10^-5 M, cupric sulfate 5×10^-6 M, 5 hrs, percent inhibition of MDA formation vs control", "protocol": "2. Antioxidative activity\nHuman LDL was incubated in the presence of cupric sulfate (5×10^-6 M) and in the presence or absence of a compound (10^-5 M) for 5 hrs. After the incubation, the peroxidation of low-density lipoproteins (LDL) is evaluated by the formation of malondialdehyde (MDA), which is a sort of lipid peroxides according to the method of Simon J. T. Mao et al. (J. Med. Chem., Vol. 34, pages 298-302, 1991). Activity of the compound is shown by percent inhibition of the MDA formation as compared with control."}},
  "data": [
    {"smiles": "CCCCCCCNC(=O)Nc1ccccc1NCc1cc(C(C)(C)C)c(O)c(C(C)(C)C)c1", "note": "[Example 14]", "values": [
      {"measurement": "ACAT Inhibition (%)", "setting": "[1]", "result": 81, "unit": "%"},
      {"measurement": "Antioxidant Activity (%)", "setting": "[2]", "result": 96, "unit": "%"}
    ]},
    {"smiles": "CC(C)(C)c1cc(C(=O)Nc2ccccc2NC(=O)N(Cc2ccccc2)Cc2ccccn2)cc(C(C)(C)C)c1O", "note": "[Example 12, N-[2-[3-benzyl-3-(2-pyridylmethyl)ureido]phenyl]-3,5-di-t-butyl-4-hydroxybenzamide]", "values": [
      {"measurement": "ACAT Inhibition (%)", "setting": "[1]", "result": 79, "unit": "%"}
    ]},
    {"smiles": "CC(C)(C)c1cc(C(=O)Nc2ccccc2NC(=O)NC23CC4CC(CC(C4)C2)C3)cc(C(C)(C)C)c1O", "note": "[Example 11, N-[2-(3-adamantyl)ureido]phenyl-3,5-di-t-butyl-4-hydroxybenzamide]", "values": [
      {"measurement": "ACAT Inhibition (%)", "setting": "[1]", "result": 73, "unit": "%"}
    ]},
    {"smiles": "CCCCCCCN(C)C(=O)Nc1ccc(OC)cc1NC(=O)c1cc(C(C)(C)C)c(O)c(C(C)(C)C)c1", "note": "[Example 21, N-[2-(3-heptyl-3-methylureido)-5-methoxyphenyl]-3,5-di-t-butyl-4-hydroxybenzamide]", "values": [
      {"measurement": "ACAT Inhibition (%)", "setting": "[1]", "result": 93, "unit": "%"}
    ]},
    {"smiles": "CCCCCCCN(C)C(=O)Nc1ccc(F)cc1NC(=O)c1cc(C(C)(C)C)c(O)c(C(C)(C)C)c1", "note": "[Example 32, N-[5-fluoro-2-(3-heptyl-3-methylureido)phenyl]-3,5-di-t-butyl-4-hydroxybenzamide]", "values": [
      {"measurement": "ACAT Inhibition (%)", "setting": "[1]", "result": 95, "unit": "%"}
    ]},
    {"smiles": "COc1ccc(NC(=O)N(Cc2ccccc2)Cc2ccccc2)c(NC(=O)c2cc(C(C)(C)C)c(O)c(C(C)(C)C)c2)c1", "note": "[Example 20, N-[2-(3,3-dibenzylureido)-5-methoxyphenyl]-3,5-di-t-butyl-4-hydroxybenzamide]", "values": [
      {"measurement": "ACAT Inhibition (%)", "setting": "[1]", "result": 99, "unit": "%"}
    ]},
    {"smiles": "CC(C)(C)c1cc(C(=O)Nc2ccccc2NC(=O)N(Cc2ccccc2)Cc2ccccc2)cc(C(C)(C)C)c1O", "note": "[Example 8, N-[2-(3,3-dibenzylureido)phenyl]-3,5-di-t-butyl-4-hydroxybenzamide]", "values": [
      {"measurement": "ACAT Inhibition (%)", "setting": "[1]", "result": 85, "unit": "%"},
      {"measurement": "Antioxidant Activity (%)", "setting": "[2]", "result": 83, "unit": "%"}
    ]},
    {"smiles": "CC(C)(C)c1cc(C(=O)Nc2ccccc2NC(=O)NCC(c2ccccc2)c2ccccc2)cc(C(C)(C)C)c1O", "note": "[Example 7, N-[2-(3-(2,2-diphenylethyl)ureido]phenyl]-3,5-di-t-butyl-4-hydroxybenzamide]", "values": [
      {"measurement": "ACAT Inhibition (%)", "setting": "[1]", "result": 86, "unit": "%"},
      {"measurement": "Antioxidant Activity (%)", "setting": "[2]", "result": 75, "unit": "%"}
    ]},
    {"smiles": "CCCCCCCNC(=O)Nc1ccc(F)cc1NC(=O)c1cc(C(C)(C)C)c(O)c(C(C)(C)C)c1", "note": "[Example 30, N-[5-fluoro-2-(3-heptylureido)phenyl]-3,5-di-t-butyl-4-hydroxybenzamide]", "values": [
      {"measurement": "ACAT Inhibition (%)", "setting": "[1]", "result": 78, "unit": "%"},
      {"measurement": "Antioxidant Activity (%)", "setting": "[2]", "result": 79, "unit": "%"}
    ]},
    {"smiles": "CCCCCCCN(C)C(=O)Nc1ccccc1NC(=O)c1cc(C(C)(C)C)c(O)c(C(C)(C)C)c1", "note": "[Example 13, N-[2-(3-heptyl-3-methyl)ureido]phenyl-3,5-di-t-butyl-4-hydroxybenzamide]", "values": [
      {"measurement": "ACAT Inhibition (%)", "setting": "[1]", "result": 88, "unit": "%"}
    ]},
    {"smiles": "CCCCCCCN(C)C(=O)Nc1cc(Cl)c(Cl)cc1NC(=O)c1cc(C(C)(C)C)c(O)c(C(C)(C)C)c1", "note": "[Example 35, N-[4,5-dichloro-2-(3-heptyl-3-methylureido)phenyl]-3,5-di-t-butyl-4-hydroxybenzamide]", "values": [
      {"measurement": "ACAT Inhibition (%)", "setting": "[1]", "result": 71, "unit": "%"}
    ]},
    {"smiles": "CCCCCCCNC(=O)Nc1cc(OC)ccc1NC(=O)c1cc(C(C)(C)C)c(O)c(C(C)(C)C)c1", "note": "[Example 36, N-[2-(3-heptylureido)-4-methoxyphenyl]-3,5-di-t-butyl-4-hydroxybenzamide]", "values": [
      {"measurement": "ACAT Inhibition (%)", "setting": "[1]", "result": 77, "unit": "%"},
      {"measurement": "Antioxidant Activity (%)", "setting": "[2]", "result": 92, "unit": "%"}
    ]},
    {"smiles": "CCCCCCCNC(=O)Nc1ccccc1NC(=O)c1cc(C(C)(C)C)c(O)c(C(C)(C)C)c1", "note": "[Example 6, N-[2-(3-heptylureido)phenyl]-3,5-di-t-butyl-4-hydroxybenzamide]", "values": [
      {"measurement": "ACAT Inhibition (%)", "setting": "[1]", "result": 79, "unit": "%"},
      {"measurement": "Antioxidant Activity (%)", "setting": "[2]", "result": 82, "unit": "%"}
    ]}
  ]
}
